The assay has as its target T1, Aromatase (Homo sapiens, UniProt P11511).
T1 sequence (P11511 whole entry): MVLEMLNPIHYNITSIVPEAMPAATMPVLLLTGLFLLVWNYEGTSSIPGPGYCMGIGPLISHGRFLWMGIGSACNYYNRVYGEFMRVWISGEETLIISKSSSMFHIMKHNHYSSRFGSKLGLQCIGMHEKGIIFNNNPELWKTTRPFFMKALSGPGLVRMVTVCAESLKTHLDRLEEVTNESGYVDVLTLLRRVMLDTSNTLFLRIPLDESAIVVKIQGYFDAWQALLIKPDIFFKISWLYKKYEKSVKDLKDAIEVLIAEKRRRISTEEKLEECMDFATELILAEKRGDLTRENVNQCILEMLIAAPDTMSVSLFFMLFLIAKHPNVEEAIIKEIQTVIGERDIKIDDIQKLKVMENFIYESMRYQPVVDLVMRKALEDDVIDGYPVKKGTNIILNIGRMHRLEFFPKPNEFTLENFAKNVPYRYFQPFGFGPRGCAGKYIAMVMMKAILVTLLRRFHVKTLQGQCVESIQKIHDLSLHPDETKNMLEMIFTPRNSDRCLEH
Description: Inhibition of human placental Cytochrome P450 19A1

For `C[C@]12CC[C@H]3[C@@H](CCC4=CC(=O)CC[C@@]43C[C@@H]3CO3)[C@@H]1CCC2=O`, the inhibition constant Ki amounted to 753 nM. The figure for `C[C@]12CC[C@H]3[C@@H](CCC4=CC(=O)CC[C@@]43C[C@H]3CO3)[C@@H]1CCC2=O` is 86 nM. The figure for `C[C@]12CC[C@H]3[C@@H](CCC4=CC(=O)CC[C@@]43C[C@H]3CS3)[C@@H]1CCC2=O` is 22 nM; for `C[C@]12CC[C@H]3[C@@H](CCC4=CC(=O)CC[C@@]43C[C@@H]3CS3)[C@@H]1CCC2=O` it is 206 nM.
